Bounds are passed on as bounds.

Test [1] deals with T1, BRD4-BD1 (44-164) (Homo sapiens, UniProt O60885).
T1 construct: BRD4-BD1 (44-164); made in house; host or cells: E. coli BL21-CodonPlus (DE3)
As to the kind of experiment: Alphascreen binding assay BRD4-BD1 (BRD4 biochemical inhibitory activity). The note with it: read-out: Biochemical activity (IC50 μM) BRD4(1) H4. On the procedure:
Binding of compounds of formula (I) with bromodomain 2, 3 4 was assessed using Alphascreen binding assay. The inhibition of the interaction between bromodomain and its acetylated target protein (Filippakopoulos P et al. 2012) was measured quantitatively using recombinant BRD proteins, an acetylated Histone 4 peptide and AlphaScreen™ technology. In absence of inhibition the BRD protein bound to AlphaScreen™ nickel chelate acceptor beads can interact with the acetylated Histone 4 peptide which is immobilized by the AlphaScreen™ Streptavidin coated beads. This interaction brings donor and acceptor beads in proximity. The close proximity allows the singlet oxygen produced by laser excitation of the donor beads to reach the acceptor beads and generate a luminescence signal. BRD inhibitors result in a decrease in the proximity signal through an inhibition of the BRD—acetylated peptide interaction.
Recombinant human bromodomains containing the N-terminal bromodomain (BRD2-BD1 (71-194), BRD3-BD1 (24-144) and BRD4-BD1 (44-164)) or dual bromodomains (BRD4-BD12 (1-477), BRD4-BD12 (1-472)) were prepared and purified as described in protein expression and purification session. The peptide is human Histone H41-21K5AcK8AcK12AcK16Ac-Biotin (Anaspec Calif., USA).
Protocol for BRD2, BRD3 and BRD4 assay: All components are prepared in buffer composed of 50 mM HEPES pH 7.5, 100 mM NaCl, 0.01% bovine serum albumin (“BSA”), 0.01% Triton X-100, 2 mM dithiothreitol (“DTT”). 7 μL of Bromodomain protein and 7 μL of peptide are added to wells containing 1 μL of various concentrations of test compounds of formula (I) or DMSO vehicle in an Alphaplate (PerkinElmer Ga., USA) and incubated for 1 hour at room temperature. 4 μL donor and acceptor bead mixture is then added with final concentrations of 7.5 μg/ml. 30 minutes after bead addition, Alpha signal is read on the Envision spectrometer ([…]Ex 680 nm, […]Em 520-620 nm). Final concentrations of bromodomain proteins and peptide are as shown below.
All data was normalized to the mean of 16 high and 16 low control wells on each plate. A four parameter curve fit of the following formula was then applied: Y=a+(b−a)/(1+(x/c)^d) Where ‘a’ is the minimum, ‘b’ is the maximum, ‘c’ is the pIC50 and ‘d’ is the Hill slope. Protein Expression and Purification
Recombinant human bromodomains containing the N-terminal bromodomain (BRD2-BD1 (71-194), BRD3-BD1 (24-144) and BRD4-BD1 (44-164)) or dual bromodomains (BRD4-BD12 (1-477), BRD4-BD12 (1-472)) were expressed in E. coli cells (in a modified pET vector) with an N-terminal six-His tag and purified using a combination of both IMAC (Ni-affinity) and size exclusion chromatography steps.
Recombinant BRD proteins were expressed using the E. coli strain BL21-CodonPlus (DE3) (Agilent Technologies Calif., USA). Cells were grown in Terrific Broth (TB) media to an OD600 of 1.2 at 37° C. at which temperature was reduced to 25° C., protein was induced with 1.0 mM ispropyl-β-D-thiogalactopyranoside (“IPTG”) for 12-18 hours and harvested by centrifugation at 8000×g for 20 minutes. Cells were re-suspended in 0.1M K2PO4 pH 8.0, 250 mM NaCl, 10% Glycerol, 0.75% NP-40, 25 mM Imidazole, 5 mM beta-mercaptoethanol (“BME”) with 0.2 mg/ml Lysosyme, 2.0 mM phenylmethanesulfonyl fluoride (“PMSF”), 25 μg/ml DNAse I, incubated on ice for 30 minutes and lyzed with a cell disruptor (MicroFluidics Mass., USA). The lysate was clarified by centrifugation at 20,000×g for 2 hours. The protein was captured with Ni-NTA resin (Life Technologies, USA). Contaminating proteins were washed off with 25 mM Tris-HCl pH 8.3, 250 mM NaCl, 12% Glycerol and 50 mM Imidazole. Following 3× wash steps, protein was eluted step wise using a 50 mM HEPES pH 7.5, 500 mM NaCl and 400 mM Imidazole. The protein was further purified using Gel Filtration column 26/600 Superdex 200 (GE Biosciences NJ, USA) in 50 mM HEPES pH 7.5, 250 mM NaCl. The protein was aliquoted and flash-frozen in liquid Nitrogen. […]

In test [2] the test system is bromodomain. As to the kind of experiment: Bromodomain cell assays of Example 40 (at least one of them). In kind it is cell-based. The following applies: in at least one of the bromodomain cell assays described in Example 40. In outline:
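Growth inhibition: 3000 MV-4-11, MOLM-13, MM.1S or neuroblastoma cells/well got an 8-point 1:3 series from 10 μM top (0.2% DMSO) for 72 h, then CellTiter-Glo luminescence. Myc reporter: MV-4-11 with E-box firefly luciferase, 24 h exposure, One-Glo luminescence plus CellTiter-Fluo cell count. pIC50 from four-parameter fit.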

Test [3] deals with MV-4-11. Kind of test: Oncology cell growth assay MV-4-11 (CellTiter Glo, 72 hours). The test is classed as cell-based. The note with it: Homo sapiens, MV4-11, 72 h; MV-4-11 cell growth inhibitory activity, 3d. In outline: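 Growth read by CellTiter Glo luminescence after 72 h compound exposure of MV-4-11 AML cells (MLL-AF4), using 8-point 1:3 series to 10 μM final in 0.2% DMSO. Data normalized to DMSO wells, four-parameter fit yields pIC50.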

As for `CCCCC(c1cn(C)c2ncc(-c3c(C)noc3C)cc12)C1CCC(F)(F)CC1` (stereo not shown) [P-0109, 4-[3-[1-(4,4-difluorocyclohexyl)pentyl]-1-methyl-pyrrolo[2,3-b]pyridin-5-yl]-3,5-dimethyl-isoxazole], the IC50 is at most 1 µM in test [1], below 10 µM in test [2] and 1 to 10 µM in test [3].
In the same order, the values of `CCCCC(O)(c1cn(C)c2ncc(-c3c(C)noc3C)cc12)C1CCC(F)(F)CC1` (stereo not shown) [P-0108, 1-(4,4-difluorocyclohexyl)-1-[5-(3,5-dimethylisoxazol-4-yl)-1-methyl-pyrrolo[2,3-b]pyridin-3-yl]pentan-1-ol] are at most 1 µM, below 10 µM and at most 1 µM.
Consider `Cc1noc(C)c1-c1cnc2c(CC3CC3)cn(S(=O)(=O)CCC(F)(F)F)c2c1` [P-0074, 4-[3-(cyclopropylmethyl)-1-(3,3,3-trifluoropropylsulfonyl)pyrrolo[3,2-b]pyridin-6-yl]-3,5-dimethyl-isoxazole], for which the IC50 in test [1] was 1 to 10 µM; in test [2] it was below 10 µM.
For the compound `Cc1noc(C)c1-c1cnc2[nH]cc(C(=O)c3ccc(C(F)(F)F)cc3)c2c1` [P-0016, [5-(3,5-dimethylisoxazol-4-yl)-1H-pyrrolo[2,3-b]pyridin-3-yl]-[4-(trifluoromethyl)phenyl]methanone], the IC50 in test [1] was 1 to 10 µM; in test [2] it was below 10 µM.
Turning to `Cc1noc(C)c1-c1cnc2c(I)cn([Si](C(C)C)(C(C)C)C(C)C)c2c1` [P-0130, [6-(3,5-dimethylisoxazol-4-yl)-3-iodo-pyrrolo[3,2-b]pyridin-1-yl]-triisopropyl-silane], the IC50 in test [1] was 1 to 10 µM; in test [2], below 10 µM.
Regarding `Cc1noc(C)c1-c1cnc2c(c1)c(Sc1ccccc1)cn2C1COC1` [P-0178, 3,5-dimethyl-4-[1-(oxetan-3-yl)-3-phenylsulfanyl-pyrrolo[2,3-b]pyridin-5-yl]isoxazole], the IC50 in test [1] and in test [3] was 1 to 10 µM each time.
On to `Cc1noc(C)c1-c1cnc2c(c1)c(C(O)C1CCS(=O)(=O)CC1)cn2S(=O)(=O)c1ccccc1` (stereo not shown) [P-0094, [1-(benzenesulfonyl)-5-(3,5-dimethylisoxazol-4-yl)pyrrolo[2,3-b]pyridin-3-yl]-(1,1-dioxothian-4-yl)methanol], for which the IC50 is 1 to 10 µM in test [1] and below 10 µM in test [2].
As to `COC(c1c[nH]c2cc(-c3c(C)noc3C)cnc12)C1CC1` (stereo not shown) [P-0069], the IC50 in test [1] was 1 to 10 µM; in test [2] it was below 10 µM.
Consider `Cc1noc(C)c1-c1cnc2c(-c3cnn(C)c3)cn(C(=O)C3CCC(F)(F)CC3)c2c1` [P-0208, (4,4-difluorocyclohexyl)-[6-(3,5-dimethylisoxazol-4-yl)-3-(1-methylpyrazol-4-yl)pyrrolo[3,2-b]pyridin-1-yl]methanone], for which the IC50 in test [1] is at most 1 µM; in test [3], 1 to 10 µM.
Take `Cc1noc(C)c1-c1cnc2c(c1)c(CC1CCS(=O)(=O)CC1)cn2S(=O)(=O)c1ccccc1` [P-0096, 4-[[1-(benzenesulfonyl)-5-(3,5-dimethylisoxazol-4-yl)pyrrolo[2,3-b]pyridin-3-yl]methyl]thiane 1,1-dioxide]: the IC50 in test [1] was 1 to 10 µM; in test [2], below 10 µM.
For `Cc1noc(C)c1-c1cnc2c(C#N)cn(S(=O)(=O)c3ccccc3)c2c1` [P-0081, 1-(benzenesulfonyl)-6-(3,5-dimethylisoxazol-4-yl)pyrrolo[3,2-b]pyridine-3-carbonitrile], the half-inhibitory concentration (IC50) is at most 1 µM in test [1] and below 10 µM in test [2].
In the same order, the values of `Cc1noc(C)c1-c1cnc2c(I)c[nH]c2c1` [P-0072, 4-(3-iodo-1H-pyrrolo[3,2-b]pyridin-6-yl)-3,5-dimethyl-isoxazole] are 1 to 10 µM and below 10 µM.
On the same counts, the results for `Cc1noc(C)c1-c1cnc2ccn(S(=O)(=O)N3CCCC3)c2c1` [P-0068, 3,5-dimethyl-4-(1-pyrrolidin-1-ylsulfonylpyrrolo [3,2-b]pyridin-6-yl)isoxazole] are 1 to 10 µM and below 10 µM.
On the same counts, the results for `Cc1noc(C)c1-c1cnc2c(c1)c(I)cn2S(=O)(=O)c1ccccc1` [P-0087, 4-[1-(benzenesulfonyl)-3-iodo-pyrrolo[2,3-b]pyridin-5-yl]-3,5-dimethyl-isoxazole] are 1 to 10 µM and below 10 µM.
Turning to `Cc1noc(C)c1-c1cnc2cc[nH]c2c1` [P-0018, 3,5-dimethyl-4-(1H-pyrrolo[3,2-b]pyridin-6-yl)isoxazole], the IC50 in test [1] was 1 to 10 µM; in test [2], below 10 µM.
On the same counts, the results for `Cc1noc(C)c1-c1cnc2[nH]cc(I)c2c1` [P-0086, 4-(3-iodo-1H-pyrrolo[2,3-b]pyridin-5-yl)-3,5-dimethyl-isoxazole] are 1 to 10 µM and below 10 µM.
In the same order, the values of `Cc1noc(C)c1-c1cnc2c(CC3CC3)c[nH]c2c1` [P-0070, 4-[3-(cyclopropylmethyl)-1H-pyrrolo[3,2-b]pyridin-6-yl]-3,5-dimethyl-isoxazole] are 1 to 10 µM and below 10 µM.
In the same order, the values of `Cc1noc(C)c1-c1ccc2[nH]cc(CCN3CCCC3)c2c1` [P-0010, 3,5-dimethyl-4-[3-(2-pyrrolidin-1-ylethyl)-1H-indol-5-yl]isoxazole] are 1 to 10 µM and below 10 µM.
In the case of `CCc1[nH]c2ncc(-c3c(C)noc3C)cc2c1Cc1cccc(OC(F)(F)F)c1` [P-0050, 4-[2-ethyl-3-[[3-(trifluoromethoxy)phenyl]methyl]-1H-pyrrolo[2,3-b]pyridin-5-yl]-3,5-dimethyl-isoxazole], the IC50 in test [1] was 10 to 200 µM; in test [2], below 10 µM.
On the same counts, the results for `Cc1noc(C)c1-c1cnc2[nH]cc(Cc3ccc(C(F)(F)F)cc3)c2c1` [P-0015, 3,5-dimethyl-4-[3-[[4-(trifluoromethyl)phenyl]methyl]-1H-pyrrolo[2,3-b]pyridin-5-yl]isoxazole] are 1 to 10 µM and below 10 µM.
In the same order, the values of `Cc1noc(C)c1-c1cnc2c(C(=O)O)cn(S(=O)(=O)c3ccccc3)c2c1` [P-0169, 1-(benzenesulfonyl)-6-(3,5-dimethylisoxazol-4-yl)pyrrolo[3,2-b]pyridine-3-carboxylic acid] are at most 1 µM and below 10 µM.
Take `Cc1noc(C)c1-c1cnc2c(c1)c(C(F)C1CCS(=O)(=O)CC1)cn2S(=O)(=O)c1ccccc1` (stereo not shown) [P-0095, 4-[[1-(benzenesulfonyl)-5-(3,5-dimethylisoxazol-4-yl)pyrrolo[2,3-b]pyridin-3-yl]-fluoro-methyl]thiane 1,1-dioxide]: the IC50 in test [1] was 1 to 10 µM; in test [2] it was below 10 µM.

Source of the values: patent publication US10501460B2, “Heterocyclic compounds and uses thereof” (Plexxikon Inc., priority 2013, dated 2019).
